Results from patent US12264156B2, “Compounds and pharmaceutical compositions thereof for the treatment of diseases” (GALAPAGOS NV, priority 2018, dated 2025).

Columns and labels:
SIK3 = target: T1, SIK3 (Homo sapiens, UniProt Q9Y2K2); assay: ADP-Glo kinase assay, SIK3; assay type: biochemical; settings: ADP-Glo SIK kinase assay
T1 construct: purchased SignalChem S12-11G-100
In short: (§1)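 Kinase reactions (enzyme-substrate mix plus ATP) ran 120 min at room temperature for each of SIK3 and SIK2. Signal came from ADP-Glo: unconsumed ATP removed (40 min), ADP reconverted and detected by luciferase/luciferin (30 min), with luminescence tracking kinase activity. 10 μM staurosporine and 1% DMSO (final) served as controls.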

SIK2 = target: T2, SIK2 (Homo sapiens, UniProt Q9H0K1); assay: ADP-Glo kinase assay, SIK2; assay type: biochemical; settings: ADP-Glo SIK kinase assay
T2 construct: purchased ThermoFisher Scientific PV4792
In short: as §1

[1] = system: LPS-induced TNFα in monocytes; assay: Monocytes assay: LPS-triggered TNFα (ELISA); assay type: cell-based, human; settings: Homo sapiens, Monocyte, 4 h, LPS 200 ng/mL, supernatant after 4 h
Description: (§2) SIK inhibition inhibits TNFα and increases IL-10 release in LPS triggered monocyte-derived macrophages (MdM) and dendritic cells (MdDCs) (Clark et al. 2012; Sundberg et al. 2014; Ozanne et al. 2015). This assay evaluates illustrative compounds of the invention for their inhibition of LPS-induced TNFα and LPS triggered IL-10 secretion in monocytes.
(§3) PBMCs are isolated from human blood samples (buffycoats). The buffy coat is aseptically transferred into a 50 mL Falcon tube, and diluted 1/2 in PBS. Falcon tubes are filled with 20 mL Lymphoprep™, on top of which 25 mL of the buffy coat is carefully added, tubes are centrifuged for 35 min at 400 g in temperature controlled centrifuge, without brake, at 25° C. PBMCs are aspirated from the white interface layer between sample and Lymphoprep™. PBMCs are washed five times in PBS. Cells are resuspended in RPMI 1640 complete medium supplemented with 10% FBS, 1% P/S, and cell density is determined using a hematologic analyzer (Sysmex XS-500i).
(§4) PBMCs are centrifuged at 300×g for 10 min and resuspended at a density of 1.0*10^7 cells/80 μL Miltenyi buffer (PBS, pH 7.4, 1% FBS, 2 mM EDTA).
(§5) Starting from this point of the protocol all steps are performed on ice. 20 μL of CD14+ micro-beads are added per 1.0*10^7 cells, the tube is mixed and incubated for 15 min in the fridge at 4° C. Cell suspension volume is adjusted to total volume of 100 mL using Miltenyi buffer, mixed gently and subsequently centrifuged for 10 min at 300×g. Supernantant is discarded and cell pellet is resuspended in 12 mL of Miltenyi buffer.
(§6) Four LS columns are placed in the MACS Separator (magnet) from Miltenyi Biotec, and are prewet by rinsing with 3 mL of MACS buffer per column. Three mL of cell suspension is added onto the column (max 1*10^8 of labelled cells/column), and columns are subsequently washed 3 times with 3 mL of Miltenyi buffer.
(§7) The columns are removed from the magnets, and 5 mL of Miltenyi buffer are added to the column to flush out the CD14+ fraction by pushing the plunger into the column. The flushed fractions are collected in a fresh 50 mL Falcon and volume is adjusted to 30 mL using Miltenyi buffer, cells are centrifuged for 10 min at 300×g. The obtained cell pellet is resuspended in 10 mL RPMI w/o FBS, and cell density is determined using a hematologic analyser (Sysmex XS-500i). 100 000 cells are seeded in 80 μL per well of a 96-well plate in RPMI 1640 medium supplemented with 10% FBS, 1% P/S.
(§8) A compound dilution plate is made in 100% DMSO by 3-fold dilution of 10 mM stock solution. An intermediate dilution plate (10× final concentration) is made by diluting the compound dilution plate 50-fold in RPMI medium.
(§9) 10 μL of the 10× final concentration compound is added to the cells and incubated for 1 h at 37° C. before addition of trigger. No trigger conditions/trigger conditions are spiked with equal final DMSO concentrations of 0.2% DMSO. 10 μL of 10×LPS (final conc. 200 ng/mL) solution are added to all wells except for the ‘no trigger wells’ where 10 μL medium is added. Supernatant is collected after 4 h of LPS triggering.
A Lumitrac 600 Greiner 384-well plate is coated with 40 μL of capture antibody (BD Pharmingen, Cat #551220) reaching a final concentration of 1 μg/mL in 1×PBS and stored overnight at 4° C.
The plate is then washed once with PBST (PBS+0.05% Tween20) and once with PBS followed by the addition of 100 μL of blocking buffer (1% Bovine Serum Albumin (BSA)−5% Sucrose) and plates are sealed and incubated for at least 4 h at RT. After washing the plate once with PBST and once with PBS, […]. Plates are washed twice with PBST, and once with PBS, after which 35 μL of the detection antibody is added (final concentration 0.25 μg/mL diluted in dilution buffer) and plates are incubated for at least 2 h at RT. […]

[2] = system: LPS triggered IL-10 secretion in monocytes; assay: Monocytes assay: LPS-triggered IL-10 (ELISA); assay type: cell-based, human; settings: LPS 200 ng/mL, supernatant after 4 h, maximal fold change vs LPS only
Description: as §2, §3, §4, §5, §6, §7, §8, §9
A Lumitrac 600 Greiner 384-well plate is coated with 40 μL of capture antibody (final concentration of 1 μg/mL in 1×PBS) and stored overnight at 4° C. The next day the plate is washed three times with PBST (PBS+0.05% Tween20) and once with PBS followed by the addition of 100 μL of blocking buffer (1% BSA−5% Sucrose) and plates are sealed and incubated for at least 4 h at RT. After washing the plate once with PBST and once with PBS, 40 μL of standard or sample are added (IL-10 standard curve is prepared using a 1/2 serial dilution starting from […]; dilutions are made in dilution buffer (PBS+1% BSA)). Plates are washed twice with PBST, and once with PBS, after which 35 μL of the detection antibody is added (final concentration 0.143 μg/mL diluted in dilution buffer) and plates are incubated for at least 2 h at RT. […]

SIK1 = target: T3, SIK1 (Homo sapiens, UniProt P57059); assay: ADP-Glo kinase assay, SIK1; assay type: biochemical; settings: ADP-Glo SIK kinase assay
T3 construct: purchased Carna Biosciences 02-131
In short: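 Wells with 1% DMSO or 10 μM staurosporine (final) define the control window. The kinase reaction with substrate and ATP runs 120 min at RT, followed by ADP-Glo detection: ATP depletion (40 min) and ADP-derived luminescence (30 min).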

T2 sequence (Q9H0K1 whole entry): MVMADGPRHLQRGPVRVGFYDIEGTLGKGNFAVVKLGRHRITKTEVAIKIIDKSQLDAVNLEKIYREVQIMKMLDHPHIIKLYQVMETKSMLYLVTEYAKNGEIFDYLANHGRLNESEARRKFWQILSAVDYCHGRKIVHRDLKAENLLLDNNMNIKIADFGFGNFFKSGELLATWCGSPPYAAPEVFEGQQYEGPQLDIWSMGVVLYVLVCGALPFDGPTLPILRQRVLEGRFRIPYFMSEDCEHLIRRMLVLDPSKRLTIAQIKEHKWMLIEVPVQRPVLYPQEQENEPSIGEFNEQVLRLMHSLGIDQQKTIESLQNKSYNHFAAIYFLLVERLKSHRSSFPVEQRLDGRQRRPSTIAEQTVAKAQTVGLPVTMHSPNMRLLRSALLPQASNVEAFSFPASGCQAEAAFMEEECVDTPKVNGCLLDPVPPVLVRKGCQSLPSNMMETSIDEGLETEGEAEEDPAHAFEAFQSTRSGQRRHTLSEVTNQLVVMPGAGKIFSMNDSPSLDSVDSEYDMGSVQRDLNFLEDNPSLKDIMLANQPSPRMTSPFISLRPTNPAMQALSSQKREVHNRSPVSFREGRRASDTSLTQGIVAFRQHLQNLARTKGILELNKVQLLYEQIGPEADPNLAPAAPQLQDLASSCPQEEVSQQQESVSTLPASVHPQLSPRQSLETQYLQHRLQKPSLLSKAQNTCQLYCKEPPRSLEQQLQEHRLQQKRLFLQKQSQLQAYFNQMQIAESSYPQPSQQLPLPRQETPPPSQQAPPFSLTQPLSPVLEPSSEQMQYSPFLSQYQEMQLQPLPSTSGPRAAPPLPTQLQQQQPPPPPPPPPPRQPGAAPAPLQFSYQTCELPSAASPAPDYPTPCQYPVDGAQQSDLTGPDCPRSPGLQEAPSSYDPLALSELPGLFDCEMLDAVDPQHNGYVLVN
T1 sequence (Q9Y2K2 whole entry): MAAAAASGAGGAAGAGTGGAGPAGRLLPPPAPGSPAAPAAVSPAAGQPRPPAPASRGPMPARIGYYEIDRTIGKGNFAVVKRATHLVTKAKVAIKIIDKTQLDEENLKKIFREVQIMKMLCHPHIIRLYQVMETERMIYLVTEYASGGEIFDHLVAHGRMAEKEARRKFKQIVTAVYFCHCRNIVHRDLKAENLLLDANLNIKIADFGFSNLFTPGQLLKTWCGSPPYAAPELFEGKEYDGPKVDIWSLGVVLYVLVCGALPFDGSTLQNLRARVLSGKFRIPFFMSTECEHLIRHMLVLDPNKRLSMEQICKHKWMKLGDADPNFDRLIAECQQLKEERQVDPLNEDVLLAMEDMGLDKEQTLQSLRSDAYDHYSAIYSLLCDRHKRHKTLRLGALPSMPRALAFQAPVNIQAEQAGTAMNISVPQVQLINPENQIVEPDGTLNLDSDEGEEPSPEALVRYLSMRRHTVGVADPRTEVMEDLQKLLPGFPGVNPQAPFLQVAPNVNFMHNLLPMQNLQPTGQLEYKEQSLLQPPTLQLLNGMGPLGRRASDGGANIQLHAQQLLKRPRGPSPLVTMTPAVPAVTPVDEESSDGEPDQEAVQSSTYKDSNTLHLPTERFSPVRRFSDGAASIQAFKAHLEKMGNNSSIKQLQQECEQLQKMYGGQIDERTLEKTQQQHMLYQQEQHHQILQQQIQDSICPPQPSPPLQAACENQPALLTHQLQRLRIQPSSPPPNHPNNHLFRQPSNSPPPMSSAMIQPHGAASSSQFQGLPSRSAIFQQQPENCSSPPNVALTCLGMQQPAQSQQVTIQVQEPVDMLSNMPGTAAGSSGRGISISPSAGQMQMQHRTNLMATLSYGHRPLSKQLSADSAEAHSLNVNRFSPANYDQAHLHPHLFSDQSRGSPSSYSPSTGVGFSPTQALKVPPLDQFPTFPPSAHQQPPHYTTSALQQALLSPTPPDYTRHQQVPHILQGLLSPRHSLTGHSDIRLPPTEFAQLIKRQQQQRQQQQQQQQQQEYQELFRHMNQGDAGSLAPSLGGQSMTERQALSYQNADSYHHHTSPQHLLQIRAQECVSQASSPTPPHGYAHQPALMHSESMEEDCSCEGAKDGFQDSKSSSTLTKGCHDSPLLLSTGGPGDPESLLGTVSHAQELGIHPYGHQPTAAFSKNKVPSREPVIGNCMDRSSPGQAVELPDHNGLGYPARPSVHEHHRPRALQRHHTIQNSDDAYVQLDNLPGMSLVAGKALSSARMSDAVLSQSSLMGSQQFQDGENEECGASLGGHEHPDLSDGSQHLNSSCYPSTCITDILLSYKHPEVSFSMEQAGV
T3 sequence (P57059 whole entry): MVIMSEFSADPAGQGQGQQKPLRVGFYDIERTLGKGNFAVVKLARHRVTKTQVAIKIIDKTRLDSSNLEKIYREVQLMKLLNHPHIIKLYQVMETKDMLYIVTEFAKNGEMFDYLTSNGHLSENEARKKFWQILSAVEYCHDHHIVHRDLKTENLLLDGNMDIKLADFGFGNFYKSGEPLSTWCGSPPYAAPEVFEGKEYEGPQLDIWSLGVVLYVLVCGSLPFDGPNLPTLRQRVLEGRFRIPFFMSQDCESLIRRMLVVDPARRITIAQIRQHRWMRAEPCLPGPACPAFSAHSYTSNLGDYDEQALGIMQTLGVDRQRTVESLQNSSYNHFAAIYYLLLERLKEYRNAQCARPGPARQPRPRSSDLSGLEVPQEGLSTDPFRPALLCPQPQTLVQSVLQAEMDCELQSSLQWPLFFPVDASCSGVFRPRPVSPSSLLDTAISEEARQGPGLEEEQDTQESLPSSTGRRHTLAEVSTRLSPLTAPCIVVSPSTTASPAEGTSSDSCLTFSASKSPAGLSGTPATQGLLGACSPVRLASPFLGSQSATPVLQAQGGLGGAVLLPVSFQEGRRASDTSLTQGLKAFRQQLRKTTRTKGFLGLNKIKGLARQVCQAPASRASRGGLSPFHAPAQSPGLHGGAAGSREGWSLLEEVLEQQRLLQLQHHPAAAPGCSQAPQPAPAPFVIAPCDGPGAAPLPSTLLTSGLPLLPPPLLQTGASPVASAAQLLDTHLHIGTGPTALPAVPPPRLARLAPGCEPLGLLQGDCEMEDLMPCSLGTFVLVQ

Compound	IC50 (SIK3)	IC50 (SIK2)	EC50 [1]	IC50 (SIK1)	IL-10 FCmax median [2]
COc1cc(-c2cnc3cc(OC4C[C@H]5CC[C@@H](C4)N5CCC#N)ccn23)cc(OC(F)F)c1C(=O)NC1CC1 (stereo partly drawn) [Cpd 271, 4-[7-[[(1S,5R)-8-(2-cyanoethyl)-8-azabicyclo[3.2.1]octan-3-yl]oxy]imidazo[1,2-a]pyridin-3-yl]-N-cyclopropyl-2-(difluoromethoxy)-6-methoxy-benzamide]	0.01 to 10 nM	10 to 100 nM	100 to 1000 nM	100 to 500 nM	++ (>1.5-4.5)
COc1cc(-c2cnc3cc(OCCCN4CCCCC4)ccn23)cc(OC(F)F)c1C(=O)N1CC(O)(C(F)F)C1 [compound 358, [2-(difluoromethoxy)-6-methoxy-4-[7-[3-(1-piperidyl)propoxy]imidazo[1,2-a]pyridin-3-yl]phenyl]-[3-(difluoromethyl)-3-hydroxy-azetidin-1-yl]methanone]	0.01 to 10 nM	0.01 to 10 nM	100 to 1000 nM	10 to 100 nM	+++ (>4.5)
COc1cc(-c2cnc3cc(OCC4COCCN4C(C)C)ccn23)cc(OC(F)F)c1C(=O)NC1CC1 (centres unmarked) [compound 283, N-cyclopropyl-2-(difluoromethoxy)-4-[7-[(4-isopropylmorpholin-3-yl)methoxy]imidazo[1,2-a]pyridin-3-yl]-6-methoxy-benzamide]	0.01 to 10 nM	10 to 100 nM	100 to 1000 nM	10 to 100 nM	+++ (>4.5)
COc1cc(-c2cnc3cc(OCC4CCCN(C(C)C)C4)ccn23)cc(OC(F)F)c1C(=O)NC1CC1 (centres unmarked) [compound 280, N-cyclopropyl-2-(difluoromethoxy)-4-[7-[(1-isopropyl-3-piperidyl)methoxy]imidazo [1,2-a]pyridin-3-yl]-6-methoxy-benzamide]	0.01 to 10 nM	0.01 to 10 nM	0.1 to 100 nM	0.01 to 10 nM	++ (>1.5-4.5)
COc1cc(-c2cnc3cc(OCCCN4C(C)CCCC4C)ccn23)cc(OC(F)F)c1C(=O)NC1CC1 (centres unmarked) [compound 290, N-cyclopropyl-2-(difluoromethoxy)-4-[7-[3-(2,6-dimethyl-1-piperidyl)propoxy]imidazo [1,2-a]pyridin-3-yl]-6-methoxy-benzamide]	0.01 to 10 nM	0.01 to 10 nM	0.1 to 100 nM	10 to 100 nM	+++ (>4.5)
COc1cc(-c2cnc3cc(OCC4CN(CCC#N)C4)ccn23)cc(OC(F)F)c1C(=O)NC1CC1 [Cpd 323, 4-[7-[[1-(2-cyanoethyl)azetidin-3-yl]methoxy]imidazo[1,2-a]pyridin-3-yl]-N-cyclopropyl-2-(difluoromethoxy)-6-methoxy-benzamide]	0.01 to 10 nM	0.01 to 10 nM	0.1 to 100 nM	10 to 100 nM	+++ (>4.5)
COc1cc(-c2cnc3cc(OCCCN4CCOCC45CCC5)ccn23)cc(OC(F)F)c1C(=O)NC1CC1 [compound 281, N-cyclopropyl-2-(difluoromethoxy)-6-methoxy-4-[7-[3-(8-oxa-5-azaspiro[3.5]nonan-5-yl)propoxy]imidazo[1,2-a]pyridin-3-yl]benzamide]	0.01 to 10 nM	0.01 to 10 nM	0.1 to 100 nM	0.01 to 10 nM	+++ (>4.5)
COc1cc(-c2cnc3cc(OCCNC(=O)C(F)F)ccn23)cc(OC(F)F)c1C(=O)NC1CC1 [Cpd 371, N-cyclopropyl-4-[7-[2-[(2,2-difluoroacetyl)amino]ethoxy]imidazo[1,2-a]pyridin-3-yl]-2-(difluoromethoxy)-6-methoxy-benzamide]	0.01 to 10 nM	0.01 to 10 nM	100 to 1000 nM	0.01 to 10 nM	++ (>1.5-4.5)

Second part, led by results:

IC50 (SIK3)	IC50 (SIK2)	EC50 [1]	IC50 (SIK1)	Compound	IL-10 FCmax median [2]
0.01 to 10 nM	0.01 to 10 nM	0.1 to 100 nM	10 to 100 nM	CCOC(=O)C1(C)CCN(CCCOc2ccn3c(-c4cc(OC)c(C(=O)NC5CC5)c(OC(F)F)c4)cnc3c2)CC1 [compound 380, ethyl 1-[3-[3-[4-(cyclopropylcarbamoyl)-3-(difluoromethoxy)-5-methoxy-phenyl]imidazo[1,2-a]pyridin-7-yl]oxypropyl]-4-methyl-piperidine-4-carboxylate]	++ (>1.5-4.5)
0.01 to 10 nM	0.01 to 10 nM	100 to 1000 nM	10 to 100 nM	COc1cc(-c2cnc3cc(OCCCN4CCS(=N)(=O)CC4)ccn23)cc(OC(F)F)c1C(=O)NC1CC1 [compound 327, N-cyclopropyl-2-(difluoromethoxy)-4-[7-[3-(1-imino-1-oxo-1,4-thiazinan-4-yl)propoxy]imidazo[1,2-a]pyridin-3-yl]-6-methoxy-benzamide]	+++ (>4.5)
0.01 to 10 nM	0.01 to 10 nM	0.1 to 100 nM	10 to 100 nM	COc1cc(-c2cnc3cc(OCC4CCN(C(C)C)C4)ccn23)cc(OC(F)F)c1C(=O)NC1CC1 (centres unmarked) [Cpd 287, N-cyclopropyl-2-(difluoromethoxy)-4-[7-[(1-isopropylpyrrolidin-3-yl)methoxy]imidazo[1,2-a]pyridin-3-yl]-6-methoxy-benzamide]	++ (>1.5-4.5)
0.01 to 10 nM	0.01 to 10 nM	0.1 to 100 nM	10 to 100 nM	CCOC(=O)C1(C)CCN(CC(O)COc2ccn3c(-c4cc(OC)c(C(=O)NC5CC5)c(OC(F)F)c4)cnc3c2)CC1 (centres unmarked) [compound 382, ethyl 1-[3-[3-[4-(cyclopropylcarbamoyl)-3-(difluoromethoxy)-5-methoxy-phenyl]imidazo[1,2-a]pyridin-7-yl]oxy-2-hydroxy-propyl]-4-methyl-piperidine-4-carboxylate]	++ (>1.5-4.5)
0.01 to 10 nM	0.01 to 10 nM	100 to 1000 nM	10 to 100 nM	COc1cc(-c2cnc3cc(OC[C@@H]4CCCN(CCO)C4)ccn23)cc(OC(F)F)c1C(=O)NC1CC1 [Cpd 370, N-cyclopropyl-2-(difluoromethoxy)-4-[7-[[(3R)-1-(2-hydroxyethyl)-3-piperidyl]methoxy]imidazo [1,2-a]pyridin-3-yl]-6-methoxy-benzamide]	++ (>1.5-4.5)
